What was measured:
in vitro [1] = conditions: dog, MDCK
in vitro [2] = conditions: human, microsomes
Description: Half life in human liver microsomes at 1 uM by LC-MS/MS analysis in presence of NADPH

in vitro [3] = conditions: dog, MDCK; remark: listed apart in the source
[4] = biological target: NAD-dependent protein deacylase sirtuin-5, mitochondrial (Homo sapiens, UniProt Q9NXA8)
in vitro [5] = conditions: mouse, microsomes
Description: Half life in mouse liver microsomes at 1 uM by LC-MS/MS analysis in presence of NADPH

in vitro [6] = conditions: dog, MDCK; remark: listed apart in the source
in vitro [7] = conditions: human, plasma
Description: Metabolic stability in human plasma assessed as parent compound remaining incubated for 6 hrs by LC-MS/MS analysis

in vitro [8] = conditions: human, plasma; remark: listed apart in the source
Description: Metabolic stability in human plasma assessed as parent compound remaining incubated for 24 hrs by LC-MS/MS analysis

in vitro [9] = conditions: mouse, plasma
Description: Metabolic stability in mouse plasma assessed as parent compound remaining incubated for 24 hrs by LC-MS/MS analysis

in vitro [10] = conditions: mouse, plasma; remark: listed apart in the source
Description: Metabolic stability in mouse plasma assessed as parent compound remaining incubated for 6 hrs by LC-MS/MS analysis

[11] = biological target: T1, NAD-dependent protein deacetylase sirtuin-3, mitochondrial (Homo sapiens, UniProt Q9NTG7)
T1 sequence (Q9NTG7 whole entry): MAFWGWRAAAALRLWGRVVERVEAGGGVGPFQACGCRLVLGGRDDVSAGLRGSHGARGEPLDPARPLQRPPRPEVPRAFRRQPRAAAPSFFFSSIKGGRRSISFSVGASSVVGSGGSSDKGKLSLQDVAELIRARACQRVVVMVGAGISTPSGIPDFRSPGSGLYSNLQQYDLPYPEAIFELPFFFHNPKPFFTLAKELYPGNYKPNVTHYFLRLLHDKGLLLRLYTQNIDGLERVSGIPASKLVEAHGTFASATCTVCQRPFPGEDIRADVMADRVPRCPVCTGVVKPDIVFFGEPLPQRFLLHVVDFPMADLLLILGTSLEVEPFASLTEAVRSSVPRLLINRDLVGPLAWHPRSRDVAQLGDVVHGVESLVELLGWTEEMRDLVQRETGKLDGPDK

Chain of NAD-dependent protein deacylase sirtuin-5, mitochondrial (Q9NXA8 whole entry): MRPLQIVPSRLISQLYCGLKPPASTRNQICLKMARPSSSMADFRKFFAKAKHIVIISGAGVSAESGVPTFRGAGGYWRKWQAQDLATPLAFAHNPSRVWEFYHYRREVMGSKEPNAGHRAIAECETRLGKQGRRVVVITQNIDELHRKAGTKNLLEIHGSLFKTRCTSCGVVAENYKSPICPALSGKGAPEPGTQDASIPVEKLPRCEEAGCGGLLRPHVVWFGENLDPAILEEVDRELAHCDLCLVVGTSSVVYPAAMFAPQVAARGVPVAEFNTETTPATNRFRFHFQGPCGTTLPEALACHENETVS

Row | SMILES | Papp A→B at 3 h, 25 µM (in vitro [1]) | half-life at 1 µM (in vitro [2]) | recovery at 3 h, 25 µM (in vitro [3]) | IC50 [4] | half-life at 1 µM (in vitro [5]) | Papp B→A at 3 h, 25 µM (in vitro [6]) | remaining at 6 h (in vitro [7]) | remaining at 24 h (in vitro [8]) | remaining at 24 h (in vitro [9]) | remaining at 6 h (in vitro [10]) | IC50 [11]
1 | NC(=O)c1cncc(OCc2cccc(NC(=O)c3cccnc3)c2)c1 | 23 ×10⁻⁶ cm/s | 5.5 h | > 90% | > 200 µM | 0.85 h | 25 ×10⁻⁶ cm/s | 99% | 97% | 25% | 78% | –
2 | NC(=O)c1cncc(Oc2cccc3c(NC(=O)c4ccccc4)cccc23)c1 | 3.8 ×10⁻⁶ cm/s | – | > 90% | – | – | 4.4 ×10⁻⁶ cm/s | – | – | – | – | –
3 | NC(=O)c1cncc(OCc2cccc(NC(=O)C34CC5CC(CC(C5)C3)C4)c2)c1 | – | – | – | – | – | – | – | – | – | – | > 200 µM
